# According to US20160355530A1, “HEPATITIS C INHIBITORS AND USES THEREOF” (AbbVie Inc., priority 2010, published 2016):
# Read-outs that look alike come from different tables or passages of the source.
# Legend:
# [1] = system: HCV 1a-H77 subgenomic replicon; test: microbe, parasite or virus in culture; assay type: cell-based, HCV genotype 1a; details: Hepatitis C virus, stable replicon
# [2] = system: chimeric replicon with genotype 4a NS5B; test: microbe, parasite or virus in culture; assay type: cell-based, HCV genotype 4a; details: Hepatitis C virus, read-out: 4a chimera 5% FBS EC50
# [3] = system: chimeric replicon with 2a-J6CF-derived NS5B; test: microbe, parasite or virus in culture; assay type: cell-based, HCV genotype 2a; details: Hepatitis C virus, read-out: 2a chimera 5% FBS EC50
# [4] = system: chimeric replicon with genotype 3a NS5B; test: microbe, parasite or virus in culture; assay type: cell-based, HCV genotype 3a; details: Hepatitis C virus, read-out: 3a chimera 5% FBS EC50
# [5] = molecular target: T1, HCV NS5B polymerase 1b BK strain (Hepatitis C virus genotype 1b, UniProt P26663); test: HCV NS5B polymerase enzymatic inhibition assay, strain 1b BK; assay type: biochemical; details: enzyme, strain 1b BK; read-out: HCV Polymerase Strain 1b BK IC50
# T1 construct: six-histidine tag; made in house; host or cells: E. coli
# T1 sequence (P26663 2420-2989): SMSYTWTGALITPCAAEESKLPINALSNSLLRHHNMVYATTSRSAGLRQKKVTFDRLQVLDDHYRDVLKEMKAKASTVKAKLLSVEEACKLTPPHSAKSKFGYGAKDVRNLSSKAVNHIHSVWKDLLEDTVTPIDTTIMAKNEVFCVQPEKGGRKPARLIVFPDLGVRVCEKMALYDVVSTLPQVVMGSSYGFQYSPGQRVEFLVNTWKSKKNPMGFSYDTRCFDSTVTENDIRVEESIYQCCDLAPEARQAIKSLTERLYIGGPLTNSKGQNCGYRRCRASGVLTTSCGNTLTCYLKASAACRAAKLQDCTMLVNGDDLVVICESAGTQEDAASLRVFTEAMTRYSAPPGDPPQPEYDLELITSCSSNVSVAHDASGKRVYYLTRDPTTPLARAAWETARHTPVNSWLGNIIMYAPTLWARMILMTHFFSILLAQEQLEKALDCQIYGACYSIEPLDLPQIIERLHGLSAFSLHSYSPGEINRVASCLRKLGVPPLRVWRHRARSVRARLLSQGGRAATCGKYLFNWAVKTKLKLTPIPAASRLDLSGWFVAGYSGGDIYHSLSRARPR
# Summary of the method: (§1)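 E. coli-expressed NS5B (residues 1-570, His-tagged) transcribed a 2.1 kb HCV 1b negative-strand 3′-end RNA template (5 nM) with 20 μM CTP, 20 μM ATP and 0.284 μM [3H]UTP for 3 h at 30° C. Spermine-precipitated RNA was filter-captured and counted by scintillation; IC50 from nonlinear regression.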
# [6] = system: HCV 1b-BB7 subgenomic replicon; test: microbe, parasite or virus in culture; assay type: cell-based, HCV genotype 1b; details: Hepatitis C virus, stable replicon
# [7] = system: HCV 1a-H77-C316Y transient subgenomic replicon in Huh-7 derived cell line; test: microbe, parasite or virus in culture; assay type: cell-based, HCV genotype 1a; details: for EC50: Hepatitis C virus, Huh-7, read-out: Transient Replicon 1a H77-C316Y 5% FBS EC50; for Transient Replicon Fold Resistance C316Y/1a: ratio of transient replicon EC50s, C316Y / 1a H77
# Summary of the method: (§2)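 Subgenomic replicon RNA (no Neo gene) electroporated into Huh-7-derived cells, plated at 5×10^3 cells/well; a 4 h plate gauged transfection efficiency. Cells exposed to 3-fold compound dilutions (0.5% DMSO) for 4 days at 37° C, then lysed for luciferase readout; EC50 calculated.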
# [8] = system: HCV 1a-H77 transient subgenomic replicon in Huh-7 derived cell line; test: microbe, parasite or virus in culture; assay type: cell-based, HCV genotype 1a; details: Hepatitis C virus, Huh-7; transient replicon, 5% FBS; read-out: Transient Replicon 1a H77 5% FBS EC50
# Summary of the method: as §2
# [9] = molecular target: T2, HCV NS5B polymerase 1a-H77 (Hepatitis C virus genotype 1a, UniProt P27958); test: biochemical; design: species or system HCV genotype 1a; details: enzyme, strain 1a H77; read-out: HCV Polymerase Strain 1a H77 IC50
# T2 construct: six-histidine tag; made in house; host or cells: E. coli
# T2 sequence (P27958 2421-2990): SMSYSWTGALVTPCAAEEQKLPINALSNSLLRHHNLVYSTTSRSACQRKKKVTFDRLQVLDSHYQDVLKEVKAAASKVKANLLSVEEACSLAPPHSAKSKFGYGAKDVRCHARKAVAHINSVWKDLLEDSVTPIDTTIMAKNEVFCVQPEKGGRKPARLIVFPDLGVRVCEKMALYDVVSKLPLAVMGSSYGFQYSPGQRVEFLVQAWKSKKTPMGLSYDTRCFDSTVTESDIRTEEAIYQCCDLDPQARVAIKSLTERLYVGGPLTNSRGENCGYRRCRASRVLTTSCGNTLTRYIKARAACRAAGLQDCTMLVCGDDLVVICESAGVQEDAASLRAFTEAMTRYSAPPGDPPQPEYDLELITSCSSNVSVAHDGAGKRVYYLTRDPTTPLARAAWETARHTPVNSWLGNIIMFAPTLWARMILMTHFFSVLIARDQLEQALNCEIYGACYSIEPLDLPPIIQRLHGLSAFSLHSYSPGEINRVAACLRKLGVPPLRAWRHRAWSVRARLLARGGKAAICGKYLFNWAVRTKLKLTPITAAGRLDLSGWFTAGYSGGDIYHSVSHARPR
# Summary of the method: as §1
# [10] = molecular target: T3, HCV NS5B polymerase 1a-H77-C316Y (Hepatitis C virus genotype 1a, UniProt P27958, C2736Y); test: biochemical; design: species or system HCV genotype 1a
# T3 construct: six-histidine tag; made in house; host or cells: E. coli
# T3 sequence (P27958 2421-2990 C2736Y): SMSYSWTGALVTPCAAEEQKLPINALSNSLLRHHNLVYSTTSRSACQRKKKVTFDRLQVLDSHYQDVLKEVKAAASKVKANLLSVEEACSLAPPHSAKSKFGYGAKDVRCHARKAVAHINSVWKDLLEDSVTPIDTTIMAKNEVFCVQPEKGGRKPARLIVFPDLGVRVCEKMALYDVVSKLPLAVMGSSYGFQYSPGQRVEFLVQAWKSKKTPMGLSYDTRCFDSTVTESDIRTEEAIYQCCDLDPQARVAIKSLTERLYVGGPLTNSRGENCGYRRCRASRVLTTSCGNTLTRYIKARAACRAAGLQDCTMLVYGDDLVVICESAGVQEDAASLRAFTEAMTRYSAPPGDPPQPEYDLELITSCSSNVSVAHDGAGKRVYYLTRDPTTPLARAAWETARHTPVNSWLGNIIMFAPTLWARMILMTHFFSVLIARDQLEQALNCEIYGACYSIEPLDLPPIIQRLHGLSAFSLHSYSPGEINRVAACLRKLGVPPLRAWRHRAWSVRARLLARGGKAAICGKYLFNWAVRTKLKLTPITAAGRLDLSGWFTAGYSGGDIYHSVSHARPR
# Summary of the method: as §1
# [11] = system: HCV NS5B polymerase 1a-H77-C316Y; test: biochemical; design: species or system HCV genotype 1a; details: ratio of enzyme IC50s, 1a H77-C316Y / 1a H77
# Summary of the method: as §1
# [12] = system: chimeric replicon with genotype 2b NS5B; test: microbe, parasite or virus in culture; assay type: cell-based, HCV genotype 2b; details: Hepatitis C virus, read-out: 2b chimera 5% FBS EC50
# [13] = 5% FBS, absence of human plasma, read-out: Stable Replicon 1a H77 5% FBS EC50
# [14] = strain 1a H77, 5% FBS + 40% human plasma, read-out: 1a H77 5% FBS + 40% Human Plasma EC50
# [15] = strain 1a H77, 5% FBS, no human plasma, read-out: 1a H77 5% FBS EC50
# [16] = strain 1a H77, 5% FBS, read-out: 1a H77 5% FBS EC50
# [17] = strain 1b BB7, 5% FBS + 40% human plasma, read-out: 1b BB7 5% FBS + 40% Human Plasma EC50
# [18] = strain 1b BB7, 5% FBS, no human plasma, read-out: 1b BB7 5% FBS EC50
# [19] = strain 1b BB7, 5% FBS, read-out: 1b BB7 5% FBS EC50
Compound,"EC50 [1, 13] [nM]","EC50 [1, 14] [nM]","EC50 [1, 15] [nM]","EC50 [1, 16] [nM]",EC50 [2] [nM],EC50 [3] [nM],EC50 [4] [nM],IC50 [5] [nM],"EC50 [6, 17] [nM]","EC50 [6, 18] [nM]","EC50 [6, 19] [nM]",EC50 [7] [nM],Transient Replicon Fold Resistance C316Y/1a [7] [fold],EC50 [8] [nM],IC50 [9] [nM],IC50 [10] [nM],C316Y/1a Fold Resistance [11] [fold],EC50 [12] [nM]
"CS(=O)(=O)N(CCCCF)c1cc2oc(-c3ccc(F)cc3)c(-c3ncc[nH]3)c2cc1C1CC1 [Example 83, N-[5-cyclopropyl-2-(4-fluorophenyl)-3-(1H-imidazol-2-yl)-1-benzofuran-6-yl]-N-(4-fluorobutyl)methanesulfonamide]",6.9,89,6.9,6.9,67.3,46.7,6.1,26,96,8.19,8.2,128,21,6,5.5,79,14,47.3
"CS(=O)(=O)N(CCCC#N)c1cc2oc(-c3ccc(F)cc3)c(-c3ncc[nH]3)c2cc1C1CC1 [Example 49, N-(3-cyanopropyl)-N-[5-cyclopropyl-2-(4-fluorophenyl)-3-(1H-imidazol-2-yl)-1-benzofuran-6-yl]methanesulfonamide]",3.7,53.9,3.7,3.7,33.9,22.4,3.7,17,28.1,3,3,76.8,35,2.2,5,52,10,41.5
"CS(=O)(=O)N(CCCC(=O)O)c1cc2oc(-c3ccc(F)cc3)c(C3=NOCN3)c2cc1C1CC1 [Example 157, 4-{[5-cyclopropyl-3-(4,5-dihydro-1,2,4-oxadiazol-3-yl)-2-(4-fluorophenyl)-1-benzofuran-6-yl](methylsulfonyl)amino}butanoic acid]",109,2790,109,109,> 1000,1000,108,16,2460,94.2,94.2,6890,62,111,5,54,11,1000
"CS(=O)(=O)N(CC#N)c1cc2oc(-c3ccc(F)cc3)c(-c3ncc[nH]3)c2cc1C1CC1 [Example 63, N-(cyanomethyl)-N-[5-cyclopropyl-2-(4-fluorophenyl)-3-(1H-imidazol-2-yl)-1-benzofuran-6-yl]methanesulfonamide]",67,1160,67,67,702,131,6.8,47,195,14.4,14.4,1900,25,75.6,4.5,2100,470,108
CS(=O)(=O)N(CCC1CCS(=O)(=O)C1)c1cc2oc(-c3ccc(F)cc3)c(C3=NOCCN3)c2cc1C1CC1 (stereo not drawn) [Example 123],10.9,108,10.9,10.9,58.1,162,36.4,14,211,18,18,78.9,7,10.7,9.5,76,8,105
"CS(=O)(=O)N(CCCS(N)(=O)=O)c1cc2oc(-c3ccc(F)cc3)c(-c3ncc[nH]3)c2cc1C1CC1 [Example 80, 3-{[5-cyclopropyl-2-(4-fluorophenyl)-3-(1H-imidazol-2-yl)-1-benzofuran-6-yl](methylsulfonyl)amino}propane-1-sulfonamide]",12.1,52,12.1,12.1,373,211,12.2,16,72,10.7,10.7,162,20,8.3,5,55,11,283
"CC(C)(C#N)CCCCN(c1cc2oc(-c3ccc(F)cc3)c(C3=NOCCN3)c2cc1C1CC1)S(C)(=O)=O [Example 115, N-(5-cyano-5-methylhexyl)-N-[5-cyclopropyl-3-(5,6-dihydro-4H-1,2,4-oxadiazin-3-yl)-2-(4-fluorophenyl)-1-benzofuran-6-yl]methanesulfonamide]",9.5,38,9.5,9.5,124,167,30,33,127,14,14,90.7,12,7.3,3.9,37,10,146
"CS(=O)(=O)N(CCCCO)c1cc2oc(-c3ccc(F)cc3)c(C3=NOCCN3)c2cc1C1CC1 [Example 8, N-[5-cyclopropyl-3-(5,6-dihydro-4H-1,2,4-oxadiazin-3-yl)-2-(4-fluorophenyl)-1-benzofuran-6-yl]-N-(4-hydroxybutyl)methanesulfonamide]",6.3,36,6.3,6.3,71.6,117,19.9,27,64,10,10,31.4,10,3.1,4.9,31,6,101
"CC1NC(c2c(-c3ccc(F)cc3)oc3cc(N(CCCCO)S(C)(=O)=O)c(C4CC4)cc23)=NO1 (stereo not drawn) [Example 11, N-[5-cyclopropyl-2-(4-fluorophenyl)-3-(5-methyl-4,5-dihydro-1,2,4-oxadiazol-3-yl)-1-benzofuran-6-yl]-N-(4-hydroxybutyl)methanesulfonamide]",8,100,8,8,24.4,85,16.6,20,199,10.3,10.3,34.4,11,3,5.9,30,5,98.5
